Data reported in publication PMC7988029, “Growth optimization and identification of an ω-transaminase by a novel native PAGE activity staining method in a Bacillus sp. strain BaH isolated from Iranian soil” (AMB Express, 2021).
Where two headings read alike, the source gives them in different places.

Test system: T1, BaH-ω-TA
T1 construct: gene omega-TA; native enzyme in unpurified crude extract of the wild-type strain; one activity band on native PAGE
Experiment: acetophenone formation by HPLC, Michaelis-Menten non-linear fit
Format: biochemical, Bacillus sp. BaH
Details: 0.1 mM PLP, Britton-Robinson buffer pH 6, 15 % DMSO, 35 °C, 1 mg/mL crude extract, read-out: apparent Km

Row | Km (60 mM pyruvate) | Km (70 mM (S)-MBA) | Structure (SMILES)
1 | 2.6 mM | – | C[C@H](N)c1ccccc1 [(S)-MBA]
2 | – | 17.3 mM | CC(=O)C(=O)O [pyruvate]
